In brackets after ≈: the same amount, converted by molar mass.
Tests used:
[1] = species on record: Homo sapiens; assay: Antiproliferative activity against HMVEC incubated for 4 days by MTT assay; type: functional
[2] = target: Ribosomal protein S6 kinase beta-1 (Homo sapiens, UniProt P23443, T412E); assay: Inhibition of N-terminal 6His-tagged human recombinant p70S6K T412E mutant (1 to 421 residues) in Sf21 insect cells using FITC-AHA-AKRRRLSSLRA-OH substrate peptide incubated for 90 mins
[3] = Acute toxicity in white mongrel mouse administered as single intraperitoneal injection; type: organism-based; conditions: in vivo, ip
[4] = test system: PC-3; assay: Antiproliferative activity against human PC3 cells incubated for 4 days by MTT assay; type: functional, cell-based; conditions: PC-3, 96 h
[5] = test system: Lewis lung carcinoma cell line; assay: Antiproliferative activity against mouse LL/2 cells incubated for 4 days by MTT assay; type: functional, cell-based; conditions: 96 h
[6] = test system: DU-145; assay: Antiproliferative activity against human DU145 cells incubated for 4 days by MTT assay; type: functional, cell-based; conditions: DU-145, 96 h
[7] = test system: B16-F10; assay: Antiproliferative activity against mouse B16F10 cells incubated for 4 days by MTT assay; type: functional, cell-based; conditions: B16-F10, 96 h
[8] = target: Epidermal growth factor receptor (Homo sapiens, UniProt P00533); assay: Inhibition of EGFR (unknown origin)
[9] = test system: MCF7; assay: Antiproliferative activity against human MCF7 cells assessed as cell survival at 25 ug/ml relative to untreated control; type: functional; conditions: read-out: Survival
[10] = target: Caspase; assay: Activation of caspase cascade in human T47D cells using N-(Ac-DEVD)-N'-ethoxycarbonyl-R110 fluorogenic substrate incubated for 48 hrs by fluorescent plate reader based assay; type: cell-based
[11] = test system: NCI-H1299; assay: Antiproliferative activity against human NCI-H1299 cells assessed as inhibition of cell proliferation incubated for 48 hrs by cell-titer-Glo reagent based assay; type: functional; conditions: NCI-H1299, 48 h
[12] = test system: MDA-MB-435; assay: Antiproliferative activity against human MDA-MB-435 cells assessed as inhibition of cell proliferation incubated for 48 hrs by cell-titer-Glo reagent based assay; type: functional; conditions: MDA-MB-435, 48 h
[13] = test system: T47D; assay: Antiproliferative activity against human T47D cells assessed as inhibition of cell proliferation incubated for 48 hrs by cell-titer-Glo reagent based assay; type: functional
[14] = test system: HT-29; assay: Antiproliferative activity against human HT-29 cells assessed as inhibition of cell proliferation incubated for 48 hrs by cell-titer-Glo reagent based assay; type: functional; conditions: HT-29, 48 h
[15] = test system: MX1; assay: Antiproliferative activity against human MX1 cells assessed as inhibition of cell proliferation incubated for 48 hrs by cell-titer-Glo reagent based assay; type: functional; conditions: MX1, 48 h
[16] = test system: MCF7; assay: Cytotoxic activity against human MCF7 cells; type: functional, cell-based
[17] = target: T1, Tyrosine-protein kinase JAK3 (Homo sapiens, UniProt P52333); assay: Inhibition of JAK3 (unknown origin)
T1 sequence (P52333 whole entry): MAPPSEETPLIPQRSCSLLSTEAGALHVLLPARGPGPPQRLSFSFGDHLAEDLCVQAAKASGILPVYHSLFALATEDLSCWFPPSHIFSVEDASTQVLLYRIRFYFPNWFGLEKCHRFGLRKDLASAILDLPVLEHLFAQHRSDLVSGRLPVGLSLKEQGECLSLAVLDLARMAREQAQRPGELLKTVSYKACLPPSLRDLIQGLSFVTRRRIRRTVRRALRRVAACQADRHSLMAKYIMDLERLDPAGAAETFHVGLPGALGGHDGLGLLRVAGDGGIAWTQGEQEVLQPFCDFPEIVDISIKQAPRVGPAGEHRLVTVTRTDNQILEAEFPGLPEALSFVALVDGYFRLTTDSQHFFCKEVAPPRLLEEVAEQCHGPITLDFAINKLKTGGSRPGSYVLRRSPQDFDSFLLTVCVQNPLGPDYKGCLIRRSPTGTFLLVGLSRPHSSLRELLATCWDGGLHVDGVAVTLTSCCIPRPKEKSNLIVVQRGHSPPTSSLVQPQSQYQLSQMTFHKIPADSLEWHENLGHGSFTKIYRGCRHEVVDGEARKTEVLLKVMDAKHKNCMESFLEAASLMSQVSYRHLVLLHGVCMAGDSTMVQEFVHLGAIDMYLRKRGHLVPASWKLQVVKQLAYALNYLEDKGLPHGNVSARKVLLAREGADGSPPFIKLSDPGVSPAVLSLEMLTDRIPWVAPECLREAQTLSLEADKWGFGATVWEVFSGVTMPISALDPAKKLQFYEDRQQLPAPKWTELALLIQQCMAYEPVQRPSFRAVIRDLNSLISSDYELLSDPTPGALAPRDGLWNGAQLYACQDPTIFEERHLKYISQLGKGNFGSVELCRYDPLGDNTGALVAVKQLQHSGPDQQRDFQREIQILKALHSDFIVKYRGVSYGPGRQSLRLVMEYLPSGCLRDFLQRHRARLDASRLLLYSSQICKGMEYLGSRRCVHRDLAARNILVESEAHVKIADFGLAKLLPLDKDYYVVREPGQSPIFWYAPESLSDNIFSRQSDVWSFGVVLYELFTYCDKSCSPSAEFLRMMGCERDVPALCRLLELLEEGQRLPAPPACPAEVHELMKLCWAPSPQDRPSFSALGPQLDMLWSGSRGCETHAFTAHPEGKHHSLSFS

[18] = Inhibition of binding of beta-FGF to heparin pre-incubated with beta-FGF prior to application to plate for 45 mins by ELISA
[19] = Inhibition of binding of vascular endothelial growth factor to heparin pre-incubated with VEGF prior to application to plates for 45 mins by ELISA

Ribosomal protein S6 kinase beta-1, sequence (P23443 whole entry T412E, the tested form may be a part): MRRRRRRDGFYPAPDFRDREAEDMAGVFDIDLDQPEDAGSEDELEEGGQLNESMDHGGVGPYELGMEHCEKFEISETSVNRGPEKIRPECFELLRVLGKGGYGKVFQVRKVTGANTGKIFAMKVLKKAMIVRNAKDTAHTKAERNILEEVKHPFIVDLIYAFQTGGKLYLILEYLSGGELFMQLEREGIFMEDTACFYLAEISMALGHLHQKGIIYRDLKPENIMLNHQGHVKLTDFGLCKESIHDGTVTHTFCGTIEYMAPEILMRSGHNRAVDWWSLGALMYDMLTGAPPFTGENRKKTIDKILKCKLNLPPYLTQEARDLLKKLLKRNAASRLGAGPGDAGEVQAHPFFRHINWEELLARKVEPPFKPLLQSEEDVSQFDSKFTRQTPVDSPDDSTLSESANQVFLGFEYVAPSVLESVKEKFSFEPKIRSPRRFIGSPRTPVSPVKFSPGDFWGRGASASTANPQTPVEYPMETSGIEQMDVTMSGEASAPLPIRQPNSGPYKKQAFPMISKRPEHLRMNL
Epidermal growth factor receptor, sequence (P00533 whole entry): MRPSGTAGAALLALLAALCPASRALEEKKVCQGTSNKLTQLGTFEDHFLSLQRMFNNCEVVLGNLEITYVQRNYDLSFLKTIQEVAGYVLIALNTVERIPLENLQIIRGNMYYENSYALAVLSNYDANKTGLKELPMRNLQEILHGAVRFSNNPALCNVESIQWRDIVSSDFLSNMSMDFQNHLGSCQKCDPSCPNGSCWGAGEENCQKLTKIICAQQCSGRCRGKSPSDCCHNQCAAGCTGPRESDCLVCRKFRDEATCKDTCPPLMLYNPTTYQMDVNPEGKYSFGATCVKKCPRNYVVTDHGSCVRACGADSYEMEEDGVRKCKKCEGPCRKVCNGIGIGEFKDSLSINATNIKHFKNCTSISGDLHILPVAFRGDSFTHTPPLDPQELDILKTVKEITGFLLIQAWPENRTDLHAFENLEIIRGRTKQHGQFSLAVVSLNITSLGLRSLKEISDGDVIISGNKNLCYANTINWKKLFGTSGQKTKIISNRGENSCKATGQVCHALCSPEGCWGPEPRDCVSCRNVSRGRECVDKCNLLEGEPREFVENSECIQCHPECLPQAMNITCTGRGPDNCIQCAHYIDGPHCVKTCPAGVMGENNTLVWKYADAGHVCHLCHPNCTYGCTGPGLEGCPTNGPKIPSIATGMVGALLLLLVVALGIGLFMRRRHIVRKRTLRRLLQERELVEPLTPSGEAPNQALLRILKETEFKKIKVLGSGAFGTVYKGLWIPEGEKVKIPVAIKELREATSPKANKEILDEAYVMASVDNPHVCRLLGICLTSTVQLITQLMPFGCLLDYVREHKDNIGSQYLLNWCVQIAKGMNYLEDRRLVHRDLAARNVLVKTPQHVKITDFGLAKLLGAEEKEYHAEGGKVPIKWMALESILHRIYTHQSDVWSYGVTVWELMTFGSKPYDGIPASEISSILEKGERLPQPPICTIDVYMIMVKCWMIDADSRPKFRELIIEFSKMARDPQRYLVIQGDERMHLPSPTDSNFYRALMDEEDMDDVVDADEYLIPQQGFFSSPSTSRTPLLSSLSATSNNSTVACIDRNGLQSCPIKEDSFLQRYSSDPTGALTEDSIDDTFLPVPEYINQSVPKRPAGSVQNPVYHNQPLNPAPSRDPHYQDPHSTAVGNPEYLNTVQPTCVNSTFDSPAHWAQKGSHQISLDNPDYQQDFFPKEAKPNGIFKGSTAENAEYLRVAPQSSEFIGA

| IC50 [2] [µM] | SMILES | GI50 [1] [µM] | other results |
| --- | --- | --- | --- |
| – | COc1cc2c(Nc3ccc(F)c(C(F)(F)F)c3)nnnc2cc1OCCCCl | 15.2 | – |
| – | COc1cc2c(Nc3ccc(F)cc3)nnnc2cc1OCCCCl | 23.1 | – |
| – | Clc1ccc(Nc2nnnc3ccccc23)cc1 | > 80 | – |
| – | CCOc1cc2nnnc(Nc3ccc(F)c(Cl)c3)c2cc1OC | 38.8 | – |
| < 0.025 | NC(=O)c1cccc2c(NCc3ccc(Cl)c(Cl)c3)nnnc12 | – | – |
| – | CC(C)CCNc1nnnc2c1sc1nc(N3CCOCC3)c3c(c12)CCCC3 | – | MTD [3]: 2000 mg/kg |
| – | COc1cc2c(Nc3cccc(OC(F)(F)F)c3)nnnc2cc1OCCCCl | 24.9 | – |
| – | CCCCCCNc1nnnc2c1sc1nc(N3CCOCC3)c3c(c12)CC(C)(C)OC3 | – | MTD [3]: 2000 mg/kg |
| – | C=CCNc1nnnc2c1sc1nc(N3CCOCC3)c3c(c12)CC(C)(C)OC3 | – | MTD [3]: 2000 mg/kg |
| – | CCN(CC)CCNc1nnnc2c1sc1nc(N3CCOCC3)c3c(c12)CC(C)(C)OC3 | – | MTD [3]: 2000 mg/kg |
| – | COc1cc2c(Nc3ccc(F)c(Cl)c3)nnnc2cc1OCCCCl | 7.98 | IC50 [4]: 3.79 to 6.91 µM; IC50 [5]: 3.79 to 6.91 µM; IC50 [6]: 3.79 to 6.91 µM; IC50 [7]: 3.79 to 6.91 µM |
| < 0.025 | NC(=O)c1cccc2c(N[C@H](CN3CCC3)c3ccc(F)c(C(F)(F)F)c3)nnnc12 | – | – |
| – | c1coc(CNc2nnnc3c2sc2nc(N4CCOCC4)c4c(c23)CCCC4)c1 | – | MTD [3]: 2000 mg/kg |
| – | Oc1ccc(Nc2nnnc3sc4c(c23)CCC4)cc1 | – | IC50 [8]: 38.7 µM; viability at 25 µg/mL [9]: 13% |
| – | COc1cc2c(Nc3ccc(Cl)c(Cl)c3)nnnc2cc1OCCCCl | 11 | – |
| 0.025 to 0.1 | CN(C)C[C@@H](Nc1nnnc2c(C(N)=O)cccc12)c1ccc(Cl)c(C#N)c1 | – | – |
| – | CC(C)CCNc1nnnc2c1sc1nc(N3CCOCC3)c3c(c12)CC(C)(C)OC3 | – | MTD [3]: 2000 mg/kg |
| 0.501 to 1 | NC(=O)c1cccc2c(NCc3ccccc3)nnnc12 | – | – |
| – | CCCCCOc1cc2nnnc(Nc3ccc(Cl)cc3)c2cc1OC | 25.4 | – |

| IC50 [2] [µM] | SMILES | GI50 [1] [µM] | other results |
| --- | --- | --- | --- |
| < 0.025 | CN(C)C[C@@H](Nc1nnnc2c(C(N)=O)cccc12)c1ccc(Cl)c(Cl)c1 | – | – |
| < 0.025 | NC(=O)c1cccc2c(N[C@H](CN3CCC3)c3ccc(Cl)c(Cl)c3)nnnc12 | – | – |
| < 0.025 | CN(C)C[C@@H](Nc1nnnc2c(C(N)=O)cccc12)c1ccc(Cl)c(C(F)(F)F)c1 | – | – |
| – | COc1ccc(N(C)c2nnnc3ccccc23)cc1 | – | EC50 [10]: 0.016 µM; IC50 [11]: 0.007 to 0.05 µM; IC50 [12]: 0.007 to 0.05 µM; IC50 [13]: 0.007 to 0.05 µM; IC50 [14]: 0.007 to 0.05 µM; IC50 [15]: 0.007 to 0.05 µM |
| – | CC1(C)Cc2c(c(N3CCOCC3)nc3sc4c(NN)nnnc4c23)CO1 | – | MTD [3]: 2000 mg/kg |
| – | CCOc1cc2nnnc(Nc3ccc(Cl)cc3)c2cc1OC | 26.5 | – |
| < 0.025 | NC(=O)c1cccc2c(NCc3ccc(Cl)c(C(F)(F)F)c3)nnnc12 | – | – |
| – | CC1(C)Cc2c(c(N3CCOCC3)nc3sc4c(N5CCNCC5)nnnc4c23)CO1 | – | MTD [3]: 2000 mg/kg |
| – | CCCCCOc1cc2nnnc(Nc3cccc(OC(F)(F)F)c3)c2cc1OC | 42.6 | – |
| 0.025 to 0.1 | NC(=O)c1cccc2c(NCc3ccc(C(F)(F)F)cc3)nnnc12 | – | – |
| – | CC1(C)Cc2c(c(N3CCOCC3)nc3sc4c(N(Cc5ccccc5)Cc5ccccc5)nnnc4c23)CO1 | – | MTD [3]: 2000 mg/kg |
| – | COc1cc2c(Nc3ccccc3)nnnc2cc1OCCCCl | > 80 | – |
| > 1 | NC(=O)c1cccc2c(NCc3ccccn3)nnnc12 | – | – |
| > 1 | NC(=O)c1cccc2c(NCc3cc(C(F)(F)F)ccn3)nnnc12 | – | – |
| – | c1ccc(NNc2nnnc3c2sc2nc(N4CCOCC4)c4c(c23)CCCC4)cc1 | – | MTD [3]: 2000 mg/kg |
| – | COc1cc2c(Nc3ccc(OC(F)(F)F)cc3)nnnc2cc1OCCCCl | 23.2 | – |
| – | COc1cc2c(Nc3cccc(C(F)(F)F)c3)nnnc2cc1OCCCCl | 21.4 | – |
| – | CC1(C)Cc2c(c(N3CCOCC3)nc3sc4c(Cl)nnnc4c23)CO1 | – | MTD [3]: 2000 mg/kg |
| – | CCCCCOc1cc2nnnc(Nc3ccc(OC(F)(F)F)cc3)c2cc1OC | 38 | – |

| IC50 [2] [µM] | SMILES | GI50 [1] [µM] | other results |
| --- | --- | --- | --- |
| – | CCOc1cc2nnnc(Nc3ccc(C)cc3)c2cc1OC | 42.6 | – |
| – | O=c1[nH]nnc2c1C1C(=Cc3ccccc31)S2 (stereo not drawn) | – | IC50 [16]: 6 µg/mL (≈ 24.9 µM) |
| – | COc1cc2c(Nc3ccc(C)cc3)nnnc2cc1OCCCCl | 17.1 | – |
| 0.025 to 0.1 | COc1cc([C@@H](CN(C)C)Nc2nnnc3c(C(N)=O)cccc23)ccc1Cl | – | – |
| – | NC(=O)c1c[nH]c2nnnc(O)c12 | – | IC50 [17]: < 10 µM |
| < 0.025 | COc1cc([C@@H](CN2CCC2)Nc2nnnc3c(C(N)=O)cccc23)ccc1Cl | – | – |
| < 0.025 | N#Cc1cc([C@@H](CN2CCC2)Nc2nnnc3c(C(N)=O)cccc23)ccc1Cl | – | – |
| – | CC(C)(CC(=O)On1nnc2ccccc2c1=O)CN1C(=O)c2cc3oc(-c4ccc(Cl)cc4)cc3n2C1=S | – | IC50 [18]: 0.16 µM; IC50 [19]: 0.26 µM |
| > 1 | NC(=O)c1cccc2c(NCc3cccnc3)nnnc12 | – | – |
| 0.501 to 1 | NC(=O)c1cccc2c(NCc3cccc(F)c3)nnnc12 | – | – |
| – | CC1(C)Cc2c(c(N3CCOCC3)nc3sc4c(NNc5ccccc5)nnnc4c23)CO1 | – | MTD [3]: 2000 mg/kg |
| < 0.025 | NC(=O)c1cccc2c(N[C@H](CN3CCC3)c3ccc(Cl)c(C(F)(F)F)c3)nnnc12 | – | – |
| – | COc1cc2c(Nc3ccc(Cl)cc3)nnnc2cc1OCCCCl | 18.6 | – |
| – | COc1cc2c(Nc3cc(Cl)cc(Cl)c3)nnnc2cc1OCCCCl | 28.8 | – |
| – | NNc1nnnc2c1sc1nc(N3CCOCC3)c3c(c12)CCCC3 | – | MTD [3]: 2000 mg/kg |
| – | Oc1cccc(Nc2nnnc3sc4c(c23)CCC4)c1 | – | IC50 [8]: 52.1 µM; viability at 25 µg/mL [9]: 12% |
| – | Clc1nnnc2c1sc1nc(N3CCOCC3)c3c(c12)CCCC3 | – | MTD [3]: 2000 mg/kg |
| 0.101 to 0.5 | NC(=O)c1cccc2c(NCc3cccc(C(F)(F)F)c3)nnnc12 | – | – |
